# Experimental data as given in EP0745599A2, “1-(3-Heterocyclylphenyl)-s-triazine-2,4,6-oxo or thiotrione herbicidal agents” (American Cyanamid Company, priority 1995, dated 1996).
# Key:
# Assay type in all cases: in vivo
# Conditions in all cases: rated four to five weeks after treatment
# ZEA MAYS L. = assay: Preemergence herbicidal evaluation, ZEAMX (Corn, Field)
# Text: (§1) Results of herbicide evaluation are expressed on a rating scale (0-9). The scale is based upon a visual observation of plant stand, vigor, malformation, size, chlorosis and overall plant appearance as compared with a control.
# (§2) The preemergence herbicidal activity of the test compounds of the present invention is exemplified by the following tests in which the seeds of a variety of monocotyledonous and dicotyledonous plants are separately mixed with potting soil and planted on top of approximately one inch of soil in separate pint cups. After planting, the cups are sprayed with the selected aqueous acetone solution containing test compound in sufficient quantity to provide the equivalent of about 0.125 to 0.50 kg per hectare of test compound per cup. The treated cups are then placed on greenhouse benches, watered and cared for in accordance with conventional greenhouse procedures. From four to five weeks after treatment, the tests are terminated and each cup is examined and rated according to the rating system provided in Example 42.
# CHENOPODIUM ALBUM, L. = assay: Preemergence herbicidal evaluation, CHEAL (Lambsquarters, Common)
# Text: as §1, §2
# [1] = test system: ORYZA SATIVA, L. TEBONNET; assay: Preemergence herbicidal evaluation, ORYSAT (Rice, Tebonnet)
# Text: as §1, §2
# [2] = test system: TRITICUM AESTIVUM, CV. APOLLO; assay: Preemergence herbicidal evaluation, TRZAWO (Wheat, Winter, CV. APOLLO)
# Text: as §1, §2
# GALIUM APARINE = assay: Preemergence herbicidal evaluation, GALAP (Galium)
# Text: as §1, §2
# [3] = test system: ABUTILON THEOPHRASTI, MEDIC.; assay: Postemergence herbicidal evaluation, ABUTH (Velvetleaf)
# Procedure: In the tests, seedling plants are grown in jiffy flats for about two weeks. The test compounds are dispersed in 50/50 acetone/water mixtures containing 0.5% TWEEN®20, a polyoxyethylene sorbitan monolaurate surfactant of Atlas Chemical Industries, in sufficient quantities to provide the equivalent of about 0.125 kg to 0.500 kg per hectare of active compound when applied to the plants through a spray nozzle operating at 40 psi for a predetermined time. After spraying, the plants are placed on greenhouse benches and are cared for in the usual manner, commensurate with conventional greenhouse practices. From four to five weeks after treatment, the seedling plants are examined and rated according to the rating system set forth below. Where more than one test is involved for a given compound, the data are averaged.
# as §1
# [4] = test system: GLYCINE MAX(L)MERR. CV. WILLIAMS; assay: Preemergence herbicidal evaluation, GLXMAW (Soybean, Williams)
# Text: as §1, §2
# IPOMOEA SPP. = assay: Preemergence herbicidal evaluation, IPOSS (Morningglory Spp.)
# Text: as §1, §2
# [5] = test system: ECHINOCHLOA CRUS-GALLI, (L) BEAU; assay: Preemergence herbicidal evaluation, ECHCG (Barnyardgrass)
# Text: as §1, §2
# [6] = test system: SETARIA VIRIDIS, (L) BEAU; assay: Preemergence herbicidal evaluation, SETVI (Foxtail, Green)
# Text: as §1, §2
compound,measurement,setting,value
"COC(=O)Cn1c(=O)n(C)c(=O)n(-c2cc(N3C(=O)C4=C(CCCC4)C3=O)c(F)cc2Cl)c1=O [Compound 1, Methyl 3-[2-Chloro-5-(1-cyclohexene-1,2-dicarboximido)-4-fluorophenyl]tetrahydro-5-methyl-2,4,6-trioxo-s-triazine-1(2H)-acetate]",Herbicide rating (0-9) ZEAMX,ZEA MAYS L.; 0.125 kg/ha,0.0
same,Herbicide rating (0-9) ZEAMX,ZEA MAYS L.; 0.250 kg/ha,0.0
same,Herbicide rating (0-9) ZEAMX,ZEA MAYS L.; 0.500 kg/ha,0.0
same,Herbicide rating (0-9) CHEAL,"CHENOPODIUM ALBUM, L.; 0.125 kg/ha",9.0
same,Herbicide rating (0-9) CHEAL,"CHENOPODIUM ALBUM, L.; 0.250 kg/ha",9.0
same,Herbicide rating (0-9) CHEAL,"CHENOPODIUM ALBUM, L.; 0.500 kg/ha",9.0
same,Herbicide rating (0-9) ORYSAT,[1]; 0.125 kg/ha,0.0
same,Herbicide rating (0-9) ORYSAT,[1]; 0.250 kg/ha,0.0
same,Herbicide rating (0-9) ORYSAT,[1]; 0.500 kg/ha,0.0
same,Herbicide rating (0-9) TRZAWO,[2]; 0.125 kg/ha,0.0
same,Herbicide rating (0-9) TRZAWO,[2]; 0.250 kg/ha,0.0
same,Herbicide rating (0-9) TRZAWO,[2]; 0.500 kg/ha,0.0
same,Herbicide rating (0-9) GALAP,GALIUM APARINE; 0.250 kg/ha,0.0
same,Herbicide rating (0-9) GALAP,GALIUM APARINE; 0.500 kg/ha,0.0
same,Herbicide rating (0-9) ABUTH,[3]; 0.125 kg/ha,9.0
same,Herbicide rating (0-9) ABUTH,[3]; 0.250 kg/ha,9.0
same,Herbicide rating (0-9) ABUTH,[3]; 0.500 kg/ha,9.0
same,Herbicide rating (0-9) GLXMAW,[4]; 0.125 kg/ha,0.0
same,Herbicide rating (0-9) GLXMAW,[4]; 0.250 kg/ha,0.0
same,Herbicide rating (0-9) GLXMAW,[4]; 0.500 kg/ha,0.0
"Cn1c(=O)n(CC(=O)OC(C)(C)C)c(=O)n(-c2cc(N3C(=O)C4=C(CCCC4)C3=O)c(F)cc2Cl)c1=O [Compound 2, Tert-butyl 3-[2-chloro-5-(1-cyclohexene-1,2-dicarboximido)-4-fluorophenyl]tetrahydro-5-methyl-2,4,6-trioxo-s-triazine-1(2H)-acetate]",Herbicide rating (0-9) IPOSS,IPOMOEA SPP.; 0.125 kg/ha,6.0
same,Herbicide rating (0-9) IPOSS,IPOMOEA SPP.; 0.250 kg/ha,6.0
same,Herbicide rating (0-9) IPOSS,IPOMOEA SPP.; 0.500 kg/ha,6.0
same,Herbicide rating (0-9) ECHCG,[5]; 0.125 kg/ha,0.0
same,Herbicide rating (0-9) ECHCG,[5]; 0.250 kg/ha,0.0
same,Herbicide rating (0-9) ECHCG,[5]; 0.500 kg/ha,0.0
same,Herbicide rating (0-9) CHEAL,"CHENOPODIUM ALBUM, L.; 0.125 kg/ha",9.0
same,Herbicide rating (0-9) CHEAL,"CHENOPODIUM ALBUM, L.; 0.250 kg/ha",9.0
same,Herbicide rating (0-9) CHEAL,"CHENOPODIUM ALBUM, L.; 0.500 kg/ha",9.0
same,Herbicide rating (0-9) TRZAWO,[2]; 0.125 kg/ha,1.0
same,Herbicide rating (0-9) TRZAWO,[2]; 0.250 kg/ha,1.0
same,Herbicide rating (0-9) TRZAWO,[2]; 0.500 kg/ha,1.0
same,Herbicide rating (0-9) SETVI,[6]; 0.125 kg/ha,0.0
same,Herbicide rating (0-9) SETVI,[6]; 0.250 kg/ha,0.0
same,Herbicide rating (0-9) SETVI,[6]; 0.500 kg/ha,0.0
same,Herbicide rating (0-9) ABUTH,[3]; 0.125 kg/ha,9.0
same,Herbicide rating (0-9) ABUTH,[3]; 0.250 kg/ha,9.0
same,Herbicide rating (0-9) ABUTH,[3]; 0.500 kg/ha,9.0
same,Herbicide rating (0-9) GLXMAW,[4]; 0.125 kg/ha,0.0
same,Herbicide rating (0-9) GLXMAW,[4]; 0.250 kg/ha,0.0
same,Herbicide rating (0-9) GLXMAW,[4]; 0.500 kg/ha,0.0
